Key:
[1] = system: EC (embryonal carcinoma) cell lines; assay: XTT cell viability assay, mean per entity EC; format: cell-based; settings: Homo sapiens, after 48 h
Description: (§1) The […] (XTT) assays were performed as described previously. In summary, for GCT and fibroblast cell lines 5 × 10^3 cells (3 × 10^3 for UC, PCa and RCC cell lines) per 96-well were seeded and different drug concentrations (see Additional file 2: Fig. S2, Additional file 3: Fig. S3) or corresponding solvents were added to the cells the following day. For drug details see Additional file 12: Table S2 C. Each condition was analyzed in four technical replicates and EC50 values were calculated by GraphPad Prism v8.

[2] = system: fibroblasts (MPAF, HVHF2); assay: XTT cell viability assay, fibroblasts; format: cell-based; settings: Homo sapiens, Fibroblast; after 48 h, mean
Description: as §1

2102EP-R = assay: Flow cytometry apoptosis (Annexin V/PI), 2102EP-R; format: cell-based, Human; settings: EC50, 16 h, compared to the parental cell line
Description: For Annexin V/PI staining, cells were washed with Annexin V Binding Buffer before being resuspended in 70 µl Annexin V Binding Buffer and 2.5 μl Annexin V FITC-conjugate (both Miltenyi Biotec, Bergisch Gladbach, Germany) and 15 µg PI (Sigma-Aldrich, Taufkirchen, Germany) and incubated in the dark at room temperature for 15 min. 500 µl of Annexin V Binding Buffer was added before measurement.

[3] = system: histone modifications in 2102EP cells; assay: Mass spectrometry analysis of histone modifications (Mod Spec); format: cell-based, Human
Method in brief: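 2102EP cells were treated for 16 h with EC50 concentrations of Quisinostat, JIB-04, Chaetocin, MZ-1, LP99, PRT4165 or GSK343, with DMSO as solvent control. After trypsin harvest, histones were extracted and analysed by mass spectrometry. Raw data were converted to z-scores.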

[4] = system: transcriptome of 2102EP cells; assay: RNA sequencing; format: cell-based, Human; settings: 16 h
Method in brief: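 Transcriptome of 2102EP cells sequenced; differential expression between two groups tested with p values FDR-corrected for multiple testing. Solvent-control values averaged across three datasets (GSE189472, GSE190792, GSE190022).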

[5] = 2102EP cells, Mod Spec raw data
[6] = 2102EP, EC50, 16 h, vs solvent control
[7] = sorted data log2>±1.5, FDR p<0.05

Compound: CN1C(=O)[C@@]23C[C@]4([C@]56C[C@@]78SS[C@@](CO)(C(=O)N7[C@H]5Nc5ccccc56)N(C)C8=O)c5ccccc5N[C@@H]4N2C(=O)[C@]1(CO)SS3 [Chaetocin]
- EC50 [1]: 128 nM
- EC50 [2]: 138 nM
- apoptosis induction in 2102EP-R (2102EP-R): did not induce apoptosis
- H1.4: K25AC, % of peptide pool [3, 5]: 0.02988%
- H1.4: K25ME1, % of peptide pool [3, 5]: 2.019%
- H1.4: K25ME2, % of peptide pool [3, 5]: 0.1186%
- H1.4: K25ME3, % of peptide pool [3, 5]: 0.02061%
- H1.4: K25UN, % of peptide pool [3, 5]: 97.812%
- H2A1: K13AC, % of peptide pool [3, 5]: 0.0146%
- H2A1: K13UN, % of peptide pool [3, 5]: 99.9854%
- H2A1: K15AC, % of peptide pool [3, 5]: 0.01159%
- H2A1: K15UB, % of peptide pool [3, 5]: 0%
- H2A1: K15UN, % of peptide pool [3, 5]: 99.9884%
- H2A3: K13AC, % of peptide pool [3, 5]: 0.04893%
- H2A3: K13UN, % of peptide pool [3, 5]: 99.9511%
- H2A3: K15AC, % of peptide pool [3, 5]: 0.07659%
- H2A3: K15UB, % of peptide pool [3, 5]: 0%
- H2A3: K15UN, % of peptide pool [3, 5]: 99.9234%
- H2A: K5AC, % of peptide pool [3, 5]: 14.3188%
- H2A: K5UN, % of peptide pool [3, 5]: 85.6812%
- H2A: K9AC, % of peptide pool [3, 5]: 1.675%
- H2A: K9UN, % of peptide pool [3, 5]: 98.3248%
- H2A: K36AC, % of peptide pool [3, 5]: 0.05938%
- H2A: K36UN, % of peptide pool [3, 5]: 99.9406%
- H3: K9AC, % of peptide pool [3, 5]: 0.8662%
- H3: K9ME1, % of peptide pool [3, 5]: 34.1794%
- H3: K9ME2, % of peptide pool [3, 5]: 24.6408%
- H3: K9ME3, % of peptide pool [3, 5]: 2.426%
- H3: K9UN, % of peptide pool [3, 5]: 37.8878%
- H3: K14AC, % of peptide pool [3, 5]: 29.886%
- H3: K14UN, % of peptide pool [3, 5]: 70.114%
- H3: K18AC, % of peptide pool [3, 5]: 12.8748%
- H3: K18ME1, % of peptide pool [3, 5]: 0.1543%
- H3: K18UN, % of peptide pool [3, 5]: 86.9709%
- H3: K23AC, % of peptide pool [3, 5]: 19.2205%
- H3: K23ME1, % of peptide pool [3, 5]: 0.03585%
- H3: K23UN, % of peptide pool [3, 5]: 80.7437%
- H3: K56AC, % of peptide pool [3, 5]: 0.2394%
- H3: K56ME1, % of peptide pool [3, 5]: 0.9888%
- H3: K56UN, % of peptide pool [3, 5]: 98.7718%
- H3: K64AC, % of peptide pool [3, 5]: 0.03741%
- H3: K64UN, % of peptide pool [3, 5]: 99.9626%
- H3: K79AC, % of peptide pool [3, 5]: 1.813%
- H3: K79ME1, % of peptide pool [3, 5]: 15.4225%
- H3: K79ME2, % of peptide pool [3, 5]: 5.182%
- H3: K79ME3, % of peptide pool [3, 5]: 17.8629%
- H3: K79UN, % of peptide pool [3, 5]: 59.719%
- H3: K122AC, % of peptide pool [3, 5]: 0.1813%
- H3: K122UN, % of peptide pool [3, 5]: 99.8187%
- H3: Q19ME1, % of peptide pool [3, 5]: 0.03077%
- H3: Q19UN, % of peptide pool [3, 5]: 99.9692%
- H3: Q55ME1, % of peptide pool [3, 5]: 0.2687%
- H3: Q55UN, % of peptide pool [3, 5]: 99.7313%
- H3: R42ME2, % of peptide pool [3, 5]: 2.246%
- H3: R42UN, % of peptide pool [3, 5]: 97.7541%
- H3: R49ME2, % of peptide pool [3, 5]: 6.84%
- H3: R49UN, % of peptide pool [3, 5]: 93.1597%
- H3R2UN: K4AC, % of peptide pool [3, 5]: 0.1823%
- H3R2UN: K4ME1, % of peptide pool [3, 5]: 17.5028%
- H3R2UN: K4ME2, % of peptide pool [3, 5]: 0.3386%
- H3R2UN: K4ME3, % of peptide pool [3, 5]: 0.1482%
- H3R2UN: K4UN, % of peptide pool [3, 5]: 81.8281%
- H3R2UN: Q5ME1, % of peptide pool [3, 5]: 0.09687%
- H3R2UN: Q5UN, % of peptide pool [3, 5]: 99.9031%
- H3.1: K27AC, % of peptide pool [3, 5]: 2.462%
- H3.1: K27ME1, % of peptide pool [3, 5]: 46.5828%
- H3.1: K27ME2, % of peptide pool [3, 5]: 19.949%
- H3.1: K27ME3, % of peptide pool [3, 5]: 2.906%
- H3.1: K27UN, % of peptide pool [3, 5]: 28.0999%
- H3.1: K36AC, % of peptide pool [3, 5]: 0.3566%
- H3.1: K36ME1, % of peptide pool [3, 5]: 14.5986%
- H3.1: K36ME2, % of peptide pool [3, 5]: 44.4208%
- H3.1: K36ME3, % of peptide pool [3, 5]: 21.3142%
- H3.1: K36UN, % of peptide pool [3, 5]: 19.3097%
- H3.3: K27AC, % of peptide pool [3, 5]: 5.581%
- H3.3: K27M, % of peptide pool [3, 5]: 0%
- H3.3: K27ME1, % of peptide pool [3, 5]: 45.9713%
- H3.3: K27ME2, % of peptide pool [3, 5]: 14.9979%
- H3.3: K27ME3, % of peptide pool [3, 5]: 5.393%
- H3.3: K27UN, % of peptide pool [3, 5]: 28.0564%
- H3.3: K36AC, % of peptide pool [3, 5]: 3.238%
- H3.3: K36ME1, % of peptide pool [3, 5]: 13.4078%
- H3.3: K36ME2, % of peptide pool [3, 5]: 46.3675%
- H3.3: K36ME3, % of peptide pool [3, 5]: 22.3154%
- H3.3: K36UN, % of peptide pool [3, 5]: 14.6709%
- H4: K5AC, % of peptide pool [3, 5]: 7.567%
- H4: K5UN, % of peptide pool [3, 5]: 92.4335%
- H4: K8AC, % of peptide pool [3, 5]: 11.8437%
- H4: K8UN, % of peptide pool [3, 5]: 88.1563%
- H4: K12AC, % of peptide pool ([3]; 2102EP cells, Mod Spec raw data, histone H4 K12 acetylated): 6.89 % of peptide pool
- H4: K12UN, % of peptide pool ([3]; 2102EP cells, Mod Spec raw data, histone H4 K12 unmodified): 93.1103 % of peptide pool
- H4: K16AC, % of peptide pool ([3]; 2102EP cells, Mod Spec raw data, histone H4 K16 acetylated): 48.815 % of peptide pool
- H4: K16UN, % of peptide pool ([3]; 2102EP cells, Mod Spec raw data, histone H4 K16 unmodified): 51.185 % of peptide pool
- H4: K20AC, % of peptide pool ([3]; 2102EP cells, Mod Spec raw data, histone H4 K20 acetylated): 23.7533 % of peptide pool
- H4: K20ME2, % of peptide pool ([3]; 2102EP cells, Mod Spec raw data, histone H4 K20 dimethylated): 42.9015 % of peptide pool
- H4: K20ME1, % of peptide pool ([3]; 2102EP cells, Mod Spec raw data, histone H4 K20 monomethylated): 5.498 % of peptide pool
- H4: K20ME3, % of peptide pool ([3]; 2102EP cells, Mod Spec raw data, histone H4 K20 trimethylated): 1.56 % of peptide pool
- H4: K20UN, % of peptide pool ([3]; 2102EP cells, Mod Spec raw data, histone H4 K20 unmodified): 26.2873 % of peptide pool
- change of histone modifications of the expected mode of action (Mod Spec) [3, 6]: reduction of H3K9me2/me3
- off-target changes of histone modifications (Mod Spec) [3, 6]: increase of H4K20ac
- ATP1A2 Log2 fold change vs. DMSO [4, 7]: -3.26
- CASQ1 Log2 fold change vs. DMSO [4, 7]: -2.99
- DLX5 Log2 fold change vs. DMSO [4, 7]: 5.91
- DLX6 Log2 fold change vs. DMSO [4, 7]: 5.90
- POU2F3 Log2 fold change vs. DMSO [4, 7]: -2.99
- SERPINB3 Log2 fold change vs. DMSO [4, 7]: 6.77
- A1BG Log2 fold change vs. DMSO ([4]; unsorted data): 0.04
- A1CF Log2 fold change vs. DMSO ([4]; unsorted data): -2.02
- A2M Log2 fold change vs. DMSO ([4]; unsorted data): 1.33
